# According to patent US6906205B2, “Spiro and dispiro 1,2,4-trioxolane antimalarials” (Medicines for Malaria Venture MMV, priority 2002, dated 2005):
# Key:
# [1] = tested on: P. berghei ANKA strain; test: treatment: 3x10 mg/kg p.o. divided dose vs 1x30 mg/kg po single dose in infected mice; format: in vivo, Plasmodium berghei; settings: for Activity (%) p.o. SSV: percent reduction of parasitemia day 4; for Cures: 1 × 30 mg/kg, survival to day 30 post-infection = cure, cured/treated mice
# Experimental: Moro NMRI male mice (Fü Albino specific pathogen free) weighing 18±2 g were infected intravenously (i.v.) with 2×10^7 P. berghei ANKA strain-infected erythrocytes from donor mice on day 0 of the experiment. From donor mice with circa 30% parasitemia, heparinized blood was taken and diluted in physiological saline to 10^8 parasitized erythrocytes per ml. An aliquot (0.2 ml) of this suspension was injected i.v. into experimental and control groups of mice. […] Throughout the experiments, mice were kept in groups of three or five animals in Makrolon type II cages in an air-conditioned animal room at 22 to 23° C.
# They were administered per os (p.o.) in a total volume of 0.01 ml per gram of mouse. The activity of the compound was determined by a variety of methods outlined in subsequent sections. Survival time was also recorded, and survival to day 30 post-infection was considered to be a cure.
# The first experiment conducted consisted of administration of a divided 3×10 mg/kg p.o. dose administered on days 1, 2, and 3 post-infection vs. a single 1×30 mg/kg po dose administered on day 1 post-infection. On day 4 post-infection, blood smears of all animals were prepared and stained with Giemsa. […] Compounds were administered orally in the SSV vehicle.
# [2] = tested on: P. berghei ANKA strain; test: treatment: 3x3 mg/kg and 3x1 mg/kg po divided doses in infected mice; format: in vivo, Plasmodium berghei; settings: for Activity (%) p.o. SSV: percent reduction of parasitemia day 4
# Experimental: (§1) Moro NMRI male mice (Fü Albino specific pathogen free) weighing 18±2 g were infected intravenously (i.v.) with 2×10^7 P. berghei ANKA strain-infected erythrocytes from donor mice on day 0 of the experiment. From donor mice with circa 30% parasitemia, heparinized blood was taken and diluted in physiological saline to 10^8 parasitized erythrocytes per ml. An aliquot (0.2 ml) of this suspension was injected i.v. into experimental and control groups of mice. In untreated control mice, parasitemia rose regularly to 40 to 50% by day 3 post-infection and 70 to 80% by day 4 post-infection. The mice died between days 5 and 7 post-infection. Throughout the experiments, mice were kept in groups of three or five animals in Makrolon type II cages in an air-conditioned animal room at 22 to 23° C. A diet with p-aminobenzoic acid (PABA) of 45 mg (NAFAG FUTTER© food N^o 9009 PAB-45) per kg of body weight, and tap water is available ad libitum.
# (§2) OZ compounds were prepared at an appropriate concentration, either as a solution or a suspension containing SSV (0.5% w/v CMC, 0.5% v/v benzyl alcohol, 0.4% v/v Tween 80, and 0.9% w/v sodium chloride in water). They were administered per os (p.o.) in a total volume of 0.01 ml per gram of mouse. The activity of the compound was determined by a variety of methods outlined in subsequent sections. Survival time was also recorded, and survival to day 30 post-infection was considered to be a cure.
# The second experiment consists of administration of divided 3×3 mg/kg and 3×1 mg/kg po doses administered on days 1, 2, and 3 post-infection. On day 4 post-infection, blood smears of all animals were prepared and stained with Giemsa. Parasitemia was determined microscopically, and the difference between the mean value of the control group (taken as 100%) and those of the experimental groups was calculated and expressed as percent reduction. Compounds were administered orally in the SSV vehicle.
# [3] = tested on: P. berghei ANKA strain; test: prophylactic activity, single 100 mg/kg po dose before infection; format: in vivo, Plasmodium berghei; settings: reduction of parasitemia day 3 post-infection
# Experimental: as §1, §2
# Prophylactic activities of the compounds were compared after administering po single dose of 100 mg/kg to different groups of five animals at various times before infection. All groups including an untreated control group, were then infected at the same time. Parasitemia was determined for each animal on day 3 post-infection, and percent of reduction of the level of parasitemia compared to levels for animals given no drug is determined.
# [4] = tested on: Schistosoma japonicum; test: effect in mice infected with Schistosoma japonicum; format: in vivo; settings: age of worm 35 days, 400 mg/kg x 1
# [5] = tested on: Schistosoma mansoni 21-day-old schistosomules; test: effect on 21-day-old schistosomules in mice; format: in vivo; settings: single 200 mg/kg per os, female mice
# Experimental: All groups were killed 4 weeks after treatment and the liver and intestine were removed and separated. The liver and intestine were compressed and alive male and female worms could be seen and counted. The effect of the compounds was evaluated by mean total and female worm burden.
# [6] = tested on: Schistosoma mansoni adult schistosomes (49-day-old); test: effect on adult schistosomes (49-day-old) in mice; format: in vivo; settings: single 400 mg/kg per os
# Experimental: Mice were infected with 100 Schistosoma mansoni cercariae […]. Each group was treated per os with OZ compounds at single doses of 200, 400, and 600 mg/kg. […] All groups were killed 4 weeks after treatment and the liver and intestine were removed and separated. The liver and intestine were compressed and alive male and female worms could be seen and counted.
# [7] = tested on: ANKA strain of Plasmodium berghei; test: single dose ED50/ED90/ED99 determinations in infected mice; format: in vivo; settings: single dose po in SSV, mice, percent reduction in parasitemia on day three post-infection
# Experimental: In the single dose ED50/ED90/ED99 determinations, Moro SPF or NMRI mice (group of three) infected with the ANKA strain of Plasmodium berghei were treated on day one post-infection. […] The SSV consists of 0.5% w/v CMC, 0.5% v/v benzyl alcohol, 0.4% v/v Tween 80, and 0.9% w/v sodium chloride in water. Antimalarial activity was measured by percent reduction in parasitemia on day three post-infection. The ED50/ED90 values were calculated by nonlinear fitting.
# [8] = 1 × 30 mg/kg single dose day 1 post-infection
# [9] = 3 × 10 mg/kg days 1, 2, 3 post-infection
# [10] = 3 × 1 mg/kg days 1, 2, 3 post-infection
# [11] = 3 × 3 mg/kg days 1, 2, 3 post-infection
# [12] = single 100 mg/kg po 24 h before infection
# [13] = single 100 mg/kg po 48 h before infection
# [14] = single 100 mg/kg po 72 h before infection
SMILES,"Survival (days) p.o. SSV [1, 8]","Activity (%) p.o. SSV [1, 8]",Cures [1],"Survival (days) p.o. SSV [1, 9]","Activity (%) p.o. SSV [1, 9]","Survival (days) p.o. SSV [2, 10]","Activity (%) p.o. SSV [2, 10]","Survival (days) p.o. SSV [2, 11]","Activity (%) p.o. SSV [2, 11]","Prophylactic Activity (%) [3, 12]","Prophylactic Activity (%) [3, 13]","Prophylactic Activity (%) [3, 14]",Prophylactic Activity (%) ([3]; single 100 mg/kg po at 0 h),further results
CS(=O)(=O)O.NCC1CCC2(CC1)OOC1(O2)C2CC3CC(C2)CC1C3 (centres unmarked) [compound 209],>30 days,100%,0/5,>30 days,100%,9.4 days,99.51%,16.4 days,100%,100%,99.9%,99.92%,100%,–
Cc1ccc(S(=O)(=O)O)cc1.O=C(CC1CCC2(CC1)OOC1(O2)C2CC3CC(C2)CC1C3)N1CCNCC1 (centres unmarked) [compound 279],14.8 days,99.95%,0/5,25.4 days,100%,8.8 days,83%,14.8 days,100%,97%,27%,14%,100%,–
CS(=O)(=O)O.NCC(=O)NCC1CCC2(CC1)OOC1(O2)C2CC3CC(C2)CC1C3 (centres unmarked) [compound 271],14 days,99.97%,0/5,27.8 days,100%,8.8 days,87%,16.2 days,99.99%,100%,99.98%,99.89%,100%,–
"CO[C@H]1O[C@@H]2O[C@@]3(C)CC[C@H]4[C@H](C)CC[C@@H]([C@H]1C)[C@@]24OO3 [AM, artemether, reference compound]",–,–,–,–,–,–,51%,–,86%,0%,–,–,100%,"FWRR/% (female worm reduction rate) [4]: 71%; Mice without ♀ worm [4]: 0/7; WRR/% (worm reduction rate) [4]: 62%; MTWB/x ± SD (mean total worm burden) ([4]; control 26.6 ± 4.2): 10.1 ± 4.4; % reduction of schistosomule growth at day 21 after per os application of 200 mg/kg, FWR (%) [5]: (n4) 85%; % reduction of schistosomule growth at day 21 after per os application of 200 mg/kg, TWR (%) [5]: (n4) 85%; % reduction of adult worms growth at day 49 after per os application of 400 mg/kg, TWR (%) [6]: 53%; ED90 [7]: 4.2 mg/kg; ED99 [7]: 7.1 mg/kg"
CC(C)(N)CNC(=O)CC1CCC2(CC1)OOC1(O2)C2CC3CC(C2)CC1C3.Cc1ccc(S(=O)(=O)O)cc1 (centres unmarked) [compound 277],10.4 days,99.92%,0/5,27.6 days,100%,9.4 days,83%,14 days,100%,25%,7%,9%,100%,–
